Data from patent US20100279990A1, “ANTIPROLIFERATIVE COMPOUNDS, COMPOSITIONS AND METHODS OF USE” (RAMOT AT TEL-AVIV UNIVERSITY LTD., priority 2006, published 2010).

What was measured:
[1] = test system: OVXF 1619L; assay: Monolayer Assay, PI: OVXF 1619L (Ovarian Cancer); format: cell-based, human
From the text: (§1) This example illustrates cell proliferation data in the form of IC50, IC70 and IC90 values obtained by exposure of human cancer cell-lines to compound (Ia). […].

[2] = test system: BXF 1218L; assay: Monolayer Assay, PI: BXF 1218L (Bladder); format: cell-based, human
From the text: as §1

[3] = test system: PHA activated healthy human T cells; assay: PHA induced proliferation of healthy human lymphocytes, alamar blue; format: cell-based

Compound: CN[C@H]1CC[C@@H](c2ccc(Cl)c(Cl)c2)c2ccc(C#CCCCO)cc21 [compound (Ia), (1S-cis)-4-(3,4-dichlorophenyl)-7-(5-hydroxy-1-pentyn-1-yl)-1,2,3,4-tetrahydro-N-methyl-1-naphthalenamine hydroiodide]
- Test/Control (%) ([1]; 2.3 μg/ml): 88%
- Test/Control activity class ([1]; 2.3 μg/ml): − (− (T/C = 50))
- Test/Control (%) ([1]; 7.5 μg/ml): 2%
- Test/Control activity class ([1]; 7.5 μg/ml): +++ (+++ (T/C < 10))
- Test/Control (%) ([1]; 23. μg/ml): 1%
- Test/Control activity class ([1]; 23. μg/ml): +++ (+++ (T/C < 10))
- Test/Control (%) ([1]; 75. μg/ml): 1%
- Test/Control activity class ([1]; 75. μg/ml): +++ (+++ (T/C < 10))
- Test/Control (%) ([1]; .75 μg/ml): 98%
- Test/Control activity class ([1]; .75 μg/ml): − (− (T/C = 50))
- Test/Control (%) ([2]; 2.3 μg/ml): 97%
- Test/Control activity class ([2]; 2.3 μg/ml): − (− (T/C = 50))
- Test/Control (%) ([2]; 7.5 μg/ml): 92%
- Test/Control activity class ([2]; 7.5 μg/ml): − (− (T/C = 50))
- Test/Control (%) ([2]; 23. μg/ml): 4%
- Test/Control activity class ([2]; 23. μg/ml): +++ (+++ (T/C < 10))
- Test/Control (%) ([2]; 75. μg/ml): 5%
- Test/Control activity class ([2]; 75. μg/ml): +++ (+++ (T/C < 10))
- Test/Control (%) ([2]; .75 μg/ml): 101%
- Test/Control activity class ([2]; .75 μg/ml): − (− (T/C = 50))
- potency relative to sertraline [3]: about 3 times
- IC50 ([3]; T-cell, 48 hr, alamar blue): 9.8 µM
